The values that follow are results of earlier work, collected in patent US10828278B2, “Tesofensine and beta blocker combination formulations” (SANIONA A/S, priority 2015, dated 2020).

The conditions of series [1]: for half-life: in vivo.
The conditions of series [2]: long-term treatment, corrected for placebo and diet effects, obese patients.
The conditions of series [3]: in vivo.

The term half-life denotes the time needed for the level to fall by half in the phase considered. As to `COCCc1ccc(OCC(O)CNC(C)C)cc1` (stereo not drawn) [metoprolol, 1-(Isopropylamino)-3-[4-(2-methoxyethyl)-phenoxy]-propan-2-ol], the half-life in series [1] was 3 to 4 h.
As to `CCOC[C@@H]1[C@@H](c2ccc(Cl)c(Cl)c2)C[C@@H]2CC[C@H]1N2C` [Tesofensine, (1R,2R,3S,5S)-3-(3,4-dichlorophenyl)-2-(ethoxymethyl)-8-methyl-8-azabicyclo[3.2.1]octane], the weight loss result in series [2] is “about 10%”. For the same molecule, in series [3], the sagittal diameter entry is listed as “significantly decreases” and the waist circumference result is on record as “significantly decreases”. In series [1] (serum), the serum half-life entry is recorded as “nine”.
For the molecule `COc1ccccc1OCCNCC(O)COc1cccc2[nH]c3ccccc3c12` (racemic) [carvedilol, (±)-[3-(9H-carbazol-4-yloxy)-2-hydroxypropyl][2-(2-methoxyphenoxy)ethyl]amine], the half-life in series [1] was 7 to 10 h.
